Assay results as given in patent US6693216B2, “Calcium double salts” (Nutrinova Nutrition Specialties & Food Ingredients GmbH, priority 2000, dated 2004).
Read-outs that look alike come from different tables or passages of the source.

How the values were obtained:
Molds I = conditions: Part II, 1 g/l in apple juice pH 4.5, 25° C.
Acetic acid bacteria = conditions: Part II, 1 g/l in apple juice pH 4.5, 25° C.
Thermophilic bacilli = conditions: Part II, 1 g/l in apple juice pH 4.5, 25° C.
Molds II = conditions: Part II, 1 g/l in apple juice pH 4.5, 25° C.
Lactic acid bacteria = conditions: Part II, 1 g/l in apple juice pH 4.5, 25° C.
Gram-positive bacteria = conditions: Part II, 1 g/l in apple juice pH 4.5, 25° C.
Clostridia = conditions: Part II, 1 g/l in apple juice pH 4.5, 25° C.
Bacilli = conditions: Part II, 1 g/l in apple juice pH 4.5, 25° C.
[1] = sealed
Text: Salts prepared as in example 1 were dried, stored under the specified conditions without the addition of other substances and checked at regular intervals visually for discoloration: […]

Gram-negative bacteria = conditions: Part II, 1 g/l in apple juice pH 4.5, 25° C.
Yeasts = conditions: Part II, 1 g/l in apple juice pH 4.5, 25° C.
[2] = 1 day after inoculation (2.2 × 10^4)
[3] = 3 days after inoculation (2.2 × 10^4)
[4] = 7 days after inoculation (2.2 × 10^4)
[5] = 14 days after inoculation (2.2 × 10^4)
[6] = 1 day after inoculation (2.8 × 10^4)
[7] = 3 days after inoculation (2.8 × 10^4)
[8] = 7 days after inoculation (2.8 × 10^4)
[9] = 14 days after inoculation (2.8 × 10^4)
[10] = 1 day after inoculation (1.3 × 10^4)
[11] = 3 days after inoculation (1.3 × 10^4)
[12] = 7 days after inoculation (1.3 × 10^4)
[13] = 14 days after inoculation (1.3 × 10^4)
[14] = 1 day after inoculation (2.5 × 10^4)
[15] = 3 days after inoculation (2.5 × 10^4)
[16] = 7 days after inoculation (2.5 × 10^4)
[17] = 14 days after inoculation (2.5 × 10^4)
[18] = 1 day after inoculation (2.7 × 10^4)
[19] = 3 days after inoculation (2.7 × 10^4)
[20] = 7 days after inoculation (2.7 × 10^4)
[21] = 14 days after inoculation (2.7 × 10^4)
[22] = 1 day after inoculation (2.1 × 10^4)
[23] = 3 days after inoculation (2.1 × 10^4)
[24] = 7 days after inoculation (2.1 × 10^4)
[25] = 14 days after inoculation (2.1 × 10^4)
[26] = 1 day after inoculation (2.9 × 10^4)
[27] = 3 days after inoculation (2.9 × 10^4)
[28] = 7 days after inoculation (2.9 × 10^4)
[29] = 14 days after inoculation (2.9 × 10^4)
[30] = 1 day after inoculation (3.3 × 10^4)
[31] = 3 days after inoculation (3.3 × 10^4)
[32] = 7 days after inoculation (3.3 × 10^4)
[33] = 14 days after inoculation (3.3 × 10^4)
[34] = 1 day after inoculation (2.6 × 10^4)
[35] = 3 days after inoculation (2.6 × 10^4)
[36] = 7 days after inoculation (2.6 × 10^4)
[37] = 14 days after inoculation (2.6 × 10^4)

C/C=C/C=C/C(=O)[O-].O=C[O-].[Ca+2]
Number of surviving microorganisms per g of contaminated sample, Molds I (Molds I; [2]): 3.8 × 10^3 CFU/g | Number of surviving microorganisms per g of contaminated sample, Molds I (Molds I; [3]): 2.0 × 10^2 CFU/g | Number of surviving microorganisms per g of contaminated sample, Molds I (Molds I; [4]): 25 CFU/g | Number of surviving microorganisms per g of contaminated sample, Molds I (Molds I; [5]): 10 CFU/g | Number of surviving microorganisms per g of contaminated sample, Acetic acid bacteria (Acetic acid bacteria; [6]): 2.1 × 10^4 CFU/g | Number of surviving microorganisms per g of contaminated sample, Acetic acid bacteria (Acetic acid bacteria; [7]): 1.6 × 10^4 CFU/g | Number of surviving microorganisms per g of contaminated sample, Acetic acid bacteria (Acetic acid bacteria; [8]): 7.6 × 10^3 CFU/g | Number of surviving microorganisms per g of contaminated sample, Acetic acid bacteria (Acetic acid bacteria; [9]): 2.6 × 10^4 CFU/g | Number of surviving microorganisms per g of contaminated sample, Thermophilic bacilli (Thermophilic bacilli; [10]): 2.0 × 10^3 CFU/g | Number of surviving microorganisms per g of contaminated sample, Thermophilic bacilli (Thermophilic bacilli; [11]): 3.0 × 10^2 CFU/g | Number of surviving microorganisms per g of contaminated sample, Thermophilic bacilli (Thermophilic bacilli; [12]): <10 CFU/g | Number of surviving microorganisms per g of contaminated sample, Thermophilic bacilli (Thermophilic bacilli; [13]): <10 CFU/g | Number of surviving microorganisms per g of contaminated sample, Molds II (Molds II; [14]): 3.9 × 10^3 CFU/g | Number of surviving microorganisms per g of contaminated sample, Molds II (Molds II; [15]): <100 CFU/g | Number of surviving microorganisms per g of contaminated sample, Molds II (Molds II; [16]): <10 CFU/g | Number of surviving microorganisms per g of contaminated sample, Molds II (Molds II; [17]): <10 CFU/g | Number of surviving microorganisms per g of contaminated sample, Lactic acid bacteria (Lactic acid bacteria; [18]): 3.9 × 10^3 CFU/g | Number of surviving microorganisms per g of contaminated sample, Lactic acid bacteria (Lactic acid bacteria; [19]): 1.5 × 10^3 CFU/g | Number of surviving microorganisms per g of contaminated sample, Lactic acid bacteria (Lactic acid bacteria; [20]): <10 CFU/g | Number of surviving microorganisms per g of contaminated sample, Lactic acid bacteria (Lactic acid bacteria; [21]): <10 CFU/g | Number of surviving microorganisms per g of contaminated sample, Gram-positive bacteria (Gram-positive bacteria; [22]): 2.1 × 10^4 CFU/g | Number of surviving microorganisms per g of contaminated sample, Gram-positive bacteria (Gram-positive bacteria; [23]): 8.5 × 10^3 CFU/g | Number of surviving microorganisms per g of contaminated sample, Gram-positive bacteria (Gram-positive bacteria; [24]): 6.8 × 10^2 CFU/g | Number of surviving microorganisms per g of contaminated sample, Gram-positive bacteria (Gram-positive bacteria; [25]): <10 CFU/g | Number of surviving microorganisms per g of contaminated sample, Clostridia (Clostridia; [26]): 1.1 × 10^3 CFU/g | Number of surviving microorganisms per g of contaminated sample, Clostridia (Clostridia; [27]): <100 CFU/g | Number of surviving microorganisms per g of contaminated sample, Clostridia (Clostridia; [28]): 100 CFU/g | Number of surviving microorganisms per g of contaminated sample, Clostridia (Clostridia; [29]): <10 CFU/g | Preservative action against the microorganisms used (all microorganisms used; 1 g/l in apple juice pH 4.5, up to 14 days): acts well and persistently against all microorganisms used, except for acetic acid bacteria and bacilli | Preservative action compared with the single salts (all microorganisms used; same concentration, 1 g/l in apple juice pH 4.5): acts surprisingly better than calcium formate (in particular against lactic acid bacteria, yeasts and molds) or calcium sorbate (in particular against Gram-negative bacteria) used alone | Number of surviving microorganisms per g of contaminated sample, Bacilli (Bacilli; [30]): 3.2 × 10^3 CFU/g | Number of surviving microorganisms per g of contaminated sample, Bacilli (Bacilli; [31]): 1.8 × 10^3 CFU/g | Number of surviving microorganisms per g of contaminated sample, Bacilli (Bacilli; [32]): 1.7 × 10^3 CFU/g | Number of surviving microorganisms per g of contaminated sample, Bacilli (Bacilli; [33]): 1.8 × 10^3 CFU/g | Time after yellow-brown discoloration of a 1% strength aqueous solution ([1]; dark at 7° C.): 12 months/>12 months | Time after yellow-brown discoloration of the powder ([1]; dark at 7° C.): >12 months />12 months | Time after yellow-brown discoloration of a 1% strength aqueous solution ([1]; dark at 25° C.): 12 months/>12 months | Time after yellow-brown discoloration of the powder ([1]; dark at 25° C.): >12 months />12 months | Time after yellow-brown discoloration of a 1% strength aqueous solution ([1]; under sunlight at 7° C.): 12 months/>12 months | Time after yellow-brown discoloration of the powder ([1]; under sunlight at 7° C.): 12 months/>12 months | Time after yellow-brown discoloration of a 1% strength aqueous solution ([1]; under sunlight at 25° C.): 12 months/>12 months | Time after yellow-brown discoloration of the powder ([1]; under sunlight at 25° C.): 12 months/>12 months | Number of surviving microorganisms per g of contaminated sample, Gram-negative bacteria (Gram-negative bacteria; [18]): 1.7 × 10^4 CFU/g | Number of surviving microorganisms per g of contaminated sample, Gram-negative bacteria (Gram-negative bacteria; [19]): 2.5 × 10^3 CFU/g | Number of surviving microorganisms per g of contaminated sample, Gram-negative bacteria (Gram-negative bacteria; [20]): 2.0 × 10^3 CFU/g | Number of surviving microorganisms per g of contaminated sample, Gram-negative bacteria (Gram-negative bacteria; [21]): <10 CFU/g | Number of surviving microorganisms per g of contaminated sample, Yeasts (Yeasts; [34]): 1.3 × 10^4 CFU/g | Number of surviving microorganisms per g of contaminated sample, Yeasts (Yeasts; [35]): 4.3 × 10^3 CFU/g | Number of surviving microorganisms per g of contaminated sample, Yeasts (Yeasts; [36]): <100 CFU/g | Number of surviving microorganisms per g of contaminated sample, Yeasts (Yeasts; [37]): <10 CFU/g

Calcium Sorbate
Number of surviving microorganisms per g of contaminated sample, Molds I (Molds I; [2]): 3.9 × 10^3 CFU/g | Number of surviving microorganisms per g of contaminated sample, Molds I (Molds I; [3]): <100 CFU/g | Number of surviving microorganisms per g of contaminated sample, Molds I (Molds I; [4]): <10 CFU/g | Number of surviving microorganisms per g of contaminated sample, Molds I (Molds I; [5]): <10 CFU/g | Number of surviving microorganisms per g of contaminated sample, Acetic acid bacteria (Acetic acid bacteria; [6]): 1.5 × 10^4 CFU/g | Number of surviving microorganisms per g of contaminated sample, Acetic acid bacteria (Acetic acid bacteria; [7]): 1.4 × 10^4 CFU/g | Number of surviving microorganisms per g of contaminated sample, Acetic acid bacteria (Acetic acid bacteria; [8]): 2.0 × 10^4 CFU/g | Number of surviving microorganisms per g of contaminated sample, Acetic acid bacteria (Acetic acid bacteria; [9]): 1.3 × 10^5 CFU/g | Number of surviving microorganisms per g of contaminated sample, Thermophilic bacilli (Thermophilic bacilli; [10]): 1.4 × 10^3 CFU/g | Number of surviving microorganisms per g of contaminated sample, Thermophilic bacilli (Thermophilic bacilli; [11]): 5.0 × 10^2 CFU/g | Number of surviving microorganisms per g of contaminated sample, Thermophilic bacilli (Thermophilic bacilli; [12]): <10 CFU/g | Number of surviving microorganisms per g of contaminated sample, Thermophilic bacilli (Thermophilic bacilli; [13]): <10 CFU/g | Number of surviving microorganisms per g of contaminated sample, Molds II (Molds II; [14]): 6.5 × 10^3 CFU/g | Number of surviving microorganisms per g of contaminated sample, Molds II (Molds II; [15]): <100 CFU/g | Number of surviving microorganisms per g of contaminated sample, Molds II (Molds II; [16]): <10 CFU/g | Number of surviving microorganisms per g of contaminated sample, Molds II (Molds II; [17]): <10 CFU/g | Number of surviving microorganisms per g of contaminated sample, Lactic acid bacteria (Lactic acid bacteria; [18]): 3.4 × 10^3 CFU/g | Number of surviving microorganisms per g of contaminated sample, Lactic acid bacteria (Lactic acid bacteria; [19]): 2.0 × 10^3 CFU/g | Number of surviving microorganisms per g of contaminated sample, Lactic acid bacteria (Lactic acid bacteria; [20]): <100 CFU/g | Number of surviving microorganisms per g of contaminated sample, Lactic acid bacteria (Lactic acid bacteria; [21]): <10 CFU/g | Number of surviving microorganisms per g of contaminated sample, Gram-positive bacteria (Gram-positive bacteria; [22]): 2.1 × 10^4 CFU/g | Number of surviving microorganisms per g of contaminated sample, Gram-positive bacteria (Gram-positive bacteria; [23]): 6.4 × 10^3 CFU/g | Number of surviving microorganisms per g of contaminated sample, Gram-positive bacteria (Gram-positive bacteria; [24]): <10 CFU/g | Number of surviving microorganisms per g of contaminated sample, Gram-positive bacteria (Gram-positive bacteria; [25]): <10 CFU/g | Number of surviving microorganisms per g of contaminated sample, Clostridia (Clostridia; [26]): 2.2 × 10^3 CFU/g | Number of surviving microorganisms per g of contaminated sample, Clostridia (Clostridia; [27]): <100 CFU/g | Number of surviving microorganisms per g of contaminated sample, Clostridia (Clostridia; [28]): <10 CFU/g | Number of surviving microorganisms per g of contaminated sample, Clostridia (Clostridia; [29]): <10 CFU/g | Number of surviving microorganisms per g of contaminated sample, Bacilli (Bacilli; [30]): 2.8 × 10^3 CFU/g | Number of surviving microorganisms per g of contaminated sample, Bacilli (Bacilli; [31]): 1.8 × 10^3 CFU/g | Number of surviving microorganisms per g of contaminated sample, Bacilli (Bacilli; [32]): 1.3 × 10^3 CFU/g | Number of surviving microorganisms per g of contaminated sample, Bacilli (Bacilli; [33]): 1.2 × 10^3 CFU/g | Number of surviving microorganisms per g of contaminated sample, Gram-negative bacteria (Gram-negative bacteria; [18]): 1.7 × 10^4 CFU/g | Number of surviving microorganisms per g of contaminated sample, Gram-negative bacteria (Gram-negative bacteria; [19]): 1.0 × 10^4 CFU/g | Number of surviving microorganisms per g of contaminated sample, Gram-negative bacteria (Gram-negative bacteria; [20]): 1.9 × 10^3 CFU/g | Number of surviving microorganisms per g of contaminated sample, Gram-negative bacteria (Gram-negative bacteria; [21]): 2.7 × 10^3 CFU/g | Number of surviving microorganisms per g of contaminated sample, Yeasts (Yeasts; [34]): 2.3 × 10^4 CFU/g | Number of surviving microorganisms per g of contaminated sample, Yeasts (Yeasts; [35]): 1.0 × 10^4 CFU/g | Number of surviving microorganisms per g of contaminated sample, Yeasts (Yeasts; [36]): <100 CFU/g | Number of surviving microorganisms per g of contaminated sample, Yeasts (Yeasts; [37]): <10 CFU/g
